# Measurements: US9351963B2, “Defensin-like molecules as novel antimicrobial agents” (UNIVERSITY OF MARYLAND, BALTIMORE, priority 2010, dated 2016)
# How the values were obtained:
# [1] = system: Staphylococcus aureus ATCC 29213; experiment: 96-well turbidimetric antibacterial killing assay, S. aureus; assay type: cell-based
# Experimental: (§1) The antibacterial activity of defensin mimetics against Staphylococcus aureus ATCC 29213 and Escherichia coli 25922 was carried out in a 96-well turbidimetric assay essentially as described (Ericksen, B., Wu, Z., Lu, W., and Lehrer, R. I. (2005) Antimicrob Agents Chemother 49, 269-275) with the following modifications: compounds were exposed for 30 min to […] prior to addition of […] in 10 mM phosphate buffer containing 5% DMSO. Bacterial growth was monitored for 12 hours and data were analyzed as described (Ericksen, et al). Determination of MICs was performed by Micromyx, LLC (Kalamazoo, Mich.) according to CLSI standards (CLSI. (2009) Methods for Dilution Antimicrobial Susceptibility Tests for Bacteria That Grow Aerobically; Approved Standard—Eighth Edition.)
# [2] = NMR interaction with Lipid II; assay type: binding; settings: 0.15 mM Lipid II + 0.15 mM compound, d6-DMSO, 25° C.
# Experimental: The NMR samples included 0.15 mM Lipid II, 0.15 mM BAS00127538 compound, or 0.15 mM Lipid II+0.15 mM BAS00127538 compound. All samples were dissolved in 90% double distilled H20+10% DMSO, incubated for 30 minutes, freeze-dried, and then dissolved in 300 uL of d6-DMSO. NMR experiments were carried out at 25° C. on an 800 MHz Bruker Avance NMR spectrometer (800.27 MHz for protons) equipped with a pulse-field gradient unit, four frequency channels, and a triple resonance TXI cryoprobe (Bruker Biospin, Billerica, Mass.). 1D proton experiments were collected to probe for chemical shift changes and 2D TOCSY (30, 60, and 90 msec spinlock times), 2D NOESY (150 and 300 msec mixing times), and natural abundance ^13C-HSQC experiments were collected to determine proton and carbon chemical shift assignments.
# To confirm the binding of defensins mimetic BAS00127538 to Lipid II the inventors observed by SPR, their interaction was studied directly by NMR (FIG. 7). Specifically, the inventors used 1D proton NMR spectra to determine if any chemical shift changes occur when the compound was added to 3-Lipid II. […] This Figure depicts an analysis of 2D TOCSY spectra collected at 800 MHz of the aromatic region of compound BAS00127538 alone (black) overlaid with spectra of compound bound to Lipid II (red). […]
# E. coli = experiment: Broth microdilution MIC (CLSI, Micromyx), E. coli; assay type: cell-based; settings: Escherichia coli
# Experimental: as §1
# To confirm the antibacterial killing assays, Minimal Inhibitory Concentrations (MICs, μg/ml) were determined for lead compounds against clinically relevant bacterial strains (Table 3, FIG. 11). […] Experiments were carried out according to CLSI standards (CLSI. (2009) Methods for Dilution Antimicrobial Susceptibility Tests for Bacteria That Grow Aerobically; Approved Standard—Eighth Edition.) by Micromyx, LLC (Kalamazoo, Mich.). […] There was no significant difference for any compound when evaluated against clinically relevant strains (e.g. MRSA, VRE, PRSP).
smiles,measurement,setting,value
"CN1/C(=C/C=C/c2cc(-c3ccccc3)cc(-c3ccccc3)[o+]2)C(C)(C)c2ccccc21 [BAS00127538, 2,4-diphenyl-6-[(1E)-3-[(2E)-1,3,3-trimethyl-2,3-dihydro-1H-indol-2-ylidene]prop-1-en-1-yl]-1$1^4-pyran-1-ylium]",Concentration at which compound was 100% bactericidal against S. aureus,[1],0.244 µM
same,Interaction with Lipid II by NMR analysis,[2],found to interact
same,MIC,E. coli,4 mg/L
